These results are taken from patent publication US5441984A, “Urea, thiourea and guanidine derivatives” (Eli Lilly and Company, priority 1994, dated 1995).

One assay concerns diabetic rats. Nature of the assay: In Vivo Vascular Permeability Study in diabetic rats. Set-up: species or system rat. The conditions noted are these: treated diabetic rats; 0.1% of diet, seven weeks; Mean ± SD; eight rats per group. The method, then:
As confirmation of the in vivo results obtained above, a second in vivo experiment was conducted. In this in vivo test system the compound of Example 7 was fed to diabetic rats at 0.1% of the rat's diet for seven weeks. After seven weeks the rats were killed and vascular permeability in a number of different organ systems was compared. In Table III, Column 1 discloses the organ system examined, while Columns 2, 3 and 4 disclose the vascular permeability in μg of plasma/gram wet weight/minute for control (non-diabetic rats), untreated (diabetic rats/untreated) and treated (diabetic rats/treated), respectively (eight rats per each group).

Assay [1] concerns the target Protein Kinase C mediated procollagenase synthesis and secretion. Briefly: In Vitro Inhibition of Procollagenase: PKC (PDBu) stimulated procollagenase synthesis and secretion in primary human dermal fibroblasts. The assay is classed as cell-based. Set-up: unit not given here. The conditions noted are these: 2.0% FBS used to supplement DME; 10 nM PDBu, 72 hours. The text has this: Collagenase and stromelysin are matrix metalloendoproteases which are known to be synthesized and secreted by a number of cell types in response to Protein Kinase C (PKC) activation. Matrix metalloendoproteases are responsible for the degradation of extracellular matrix molecules in the basement membrane and play a role in cell invasiveness, tissue remodeling alterations in the microvasculature (increased capillary permeability and uncontrolled cell growth) and normal matrix turnover. Alterations in the microvasculature are hallmarks of diabetic complications such as kidney failure, blindness and neuropathy. Accordingly, the ability to modulate PKC driven pathways, such as the synthesis and secretion of the […] enzyme precursor, procollagenase, should provide pharmacological advantages in treating diabetic complications.
The compounds of the present invention were evaluated for their ability to antagonize Protein Kinase C mediated procollagenase synthesis and secretion according to the following methodology.
Stimulation of the enzyme Protein Kinase C with 4-β-phorbol-12,13-dibutyrate (PDBu) leads human fibroblasts and other cells of endodermal, mesodermal and ectodermal origin to synthesize and secrete the enzyme precursor procollagenase. […]
9. After washing, the plates were read. […]

As to `CSc1ccc(NC(=O)NCc2cc(C(C)(C)C)c(O)c(C(C)(C)C)c2)cc1` [Example 6, N-[[3,5-Bis(1,1-dimethylethyl)-4-hydroxyphenyl]methyl]-N'-[4-(methylthio)phenyl]urea], in the assay with rat, the “% Normalization of Diabetic State, Blood Flow” value (“% Normalization … Blood Flow” for short) stood at 35.48% and the “% Normalization of Diabetic State, Blood Vessel Permeability” value turned out to be 66.12%.
Turning to `COc1c(C(C)(C)C)cc(CNC(=O)Nc2ccc(SC)cc2)cc1C(C)(C)C` [Example 7], in the assay with diabetic rats, the “vascular permeability, aorta” value is given as 109 ± 65 μg plasma/g wet weight/min; the “vascular permeability, brain” value was 26 ± 11 μg plasma/g wet weight/min; the “vascular permeability, heart” value is given as 547 ± 181 μg plasma/g wet weight/min; the “vascular permeability, kidney” value is given as 1208 ± 293 μg plasma/g wet weight/min. Also, in the assay on diabetic rats, the “vascular permeability, muscle” value is on record as 59 ± 13 μg plasma/g wet weight/min; the “vascular permeability, ocular anterior uvea” value was 373 ± 105 μg plasma/g wet weight/min; the “vascular permeability, ocular posterior uvea” value was 323 ± 91 μg plasma/g wet weight/min; the “vascular permeability, retina” value was 62 ± 18 μg plasma/g wet weight/min. Besides, the “vascular permeability, sciatic nerve” value with diabetic rats was 59 ± 18 μg plasma/g wet weight/min.
Turning to `CSc1ccccc1NC(=O)NCc1cc(C(C)(C)C)c(O)c(C(C)(C)C)c1` [Example 9, N-[[3,5-Bis(1,1-dimethylethyl)-4-hydroxyphenyl]methyl]-N'-[2-(methylthio)phenyl]urea], in the assay with rat, the “% Normalization … Blood Flow” value is on record as 23.29% and the “% Normalization of Diabetic State, Blood Vessel Permeability” value stood at 8.45%.
For `CC(C)(C)c1cc(CNC(=S)Nc2ccccc2)cc(C(C)(C)C)c1O` [Example 10, N-[[3,5-Bis(1,1-dimethylethyl)-4-hydroxyphenyl]methyl]-N'-phenylthiourea], in the assay with rat, the “% Normalization … Blood Flow” value turned out to be 17.56% and the “% Normalization of Diabetic State, Blood Vessel Permeability” value is given as 1.99%.
In the same order, the values of `CSc1cccc(NC(=O)NCc2cc(C(C)(C)C)c(O)c(C(C)(C)C)c2)c1` [Example 11, N-[[3,5-Bis(1,1-dimethylethyl)-4-hydroxyphenyl]methyl]-N'-[3-(methylthio)phenyl]urea] are 21.50% and -30.34%.
In turn, “N-[[3-(methylthiophenyl)-4-hydroxy-5-(1,1-dimethylethyl)phenyl]methyl]-N'-[4-(methylthio)phenyl]urea [Example 13]” registered an IC50 in assay [1] of 8.6.
